Values of other authors in patent US9102664B2, “Process for the preparation of triazole antifungal drug, its intermediates and polymorphs thereof” (MSN Laboratories Limited, priority 2011, dated 2015).

How the values were obtained:
[1] = under the conditions investigated in WO 99/18097
[2] = produced per U.S. Pat. No. 5,661,151 using 6N HCl in methanol

| Structure (SMILES) | stability of crystalline form [1] | stability of amorphous form [2] |
| --- | --- | --- |
| CC[C@@H]([C@H](C)O)n1ncn(-c2ccc(N3CCN(c4ccc(OC[C@@H]5CO[C@@](Cn6cncn6)(c6ccc(F)cc6F)C5)cc4)CC3)cc2)c1=O [form II, posaconazole] | unstable |  |
| CC[C@@H]([C@H](C)O)n1ncn(-c2ccc(N3CCN(c4ccc(OC[C@@H]5CO[C@@](Cn6cncn6)(c6ccc(F)cc6F)C5)cc4)CC3)cc2)c1=O [Amorphous form of posaconazole, posaconazole] |  | not stable |
